{
  "source": "patent US20060116325A1",
  "about": "“Methods and compositions for inhibiting hiv-coreceptor interactions” (priority 2001, published 2006)",
  "key": {"CCR5": {"molecular_target": "CCR5 (Homo sapiens, UniProt P51681)", "sequence (P51681 whole entry)": "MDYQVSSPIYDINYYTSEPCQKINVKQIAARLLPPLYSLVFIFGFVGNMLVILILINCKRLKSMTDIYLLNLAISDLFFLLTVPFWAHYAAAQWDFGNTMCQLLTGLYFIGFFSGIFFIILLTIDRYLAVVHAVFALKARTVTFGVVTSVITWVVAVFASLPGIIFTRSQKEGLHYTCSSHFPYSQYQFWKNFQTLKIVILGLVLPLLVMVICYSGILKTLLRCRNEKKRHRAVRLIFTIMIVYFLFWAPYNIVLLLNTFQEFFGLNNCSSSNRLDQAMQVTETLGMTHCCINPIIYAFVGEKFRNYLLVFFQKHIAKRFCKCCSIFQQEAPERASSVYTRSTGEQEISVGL", "assay": "Competition with 125I-MIP-1β binding to SupT1/CCR5 cells", "design": "expressed in transfected cells; host or cells: Sup-T1", "conditions": "room temperature, 0.1% sodium azide, FIG. 7A", "description": "FIGS. 7A through 7C depicts the inhibition of chemokine receptor ligand binding by peptide pre-treatment. FIG. 7A. Effect of pre-treatment with peptides 15K and 15D on the binding of MIP-1β to SupT1/CCR5 cells; FIG. 7B. Effect of pre-treatment with peptides 15K and 1SD on the binding of SDF-1α to CEMx174 cells; and FIG. 7C. Effect of pre-treatment with 15K and control peptide 15GIG on the binding of SDF-1α to CEmx174 cells. Binding studies were performed as described in Materials and Methods.\nBinding assays were performed with HEK-CCR5 or HEK CXCR4 in triplicate by adding unlabeled competitor (anti-coreceptor binding peptide or control chemokine) and radiolabeled chemokine, 0.2 ng/ml (^125I-MIP-1β or SDF-1α, specific activity 2000 Ci/mmol, NEN Life Science Products) to a cell suspension (4×10^5 cells in 200 μl) in RPMI 1640 supplemented with 1% bovine serum albumin and 25 mM HEPES pH 8.0 (binding medium). […] The supernatant was aspirated and the cell-associated radioactivity was measured using a 1272 Wallac gamma counter. […] After incubation cells were transferred to the tubes containing 800 μl of 10% sucrose in PBS and harvested by centrifugation, the supematant was aspirated and the cell-associated radioactivity was measured using a 1272 Wallac gamma counter. The data were analyzed by nonlinear regression using the computer program GraphPad Prizm 3.0. […]"}, "HIV-1IIIB": {"test_system": "HIV-1IIIB", "assay": "HIV-1IIIB infection of PBMC, p24 ELISA", "format": "cell-based", "conditions": "for concentration at which significant inhibition of HIV-1 infection was detected (as low as): HIV-1IIIB, PBMC; for inhibition of T cell-tropic HIV-1 infection of PBMCs (p24): peptide 1 hr before HIV-1IIIB, p24 after 48 hr, FIG. 4", "description": "Peripheral blood mononuclear cells were treated with designated concentrations of peptide for a period of 1 hr prior to addition of HIV-1IIIB. After 2 hr, cells were washed, and viral replication was determined after 48 hr by analysis of p24 levels. Results are representative of 4 independent experiments.\nPBMCs were obtained from whole blood of normal donors and isolated by Ficoll-Paque Plus (Pharmacia Biotech, Piscataway, N.J.) density gradient centrifugation, and plated at a cell density of 2×10^6 cells/ml. Monocyte-derived macrophages (MDM) were generated from adherent human peripheral blood mononuclear cells by culture for 7 days with M-CSF (100 ng/ml). Cultures were maintained in RPMI-1640 medium (Life Technologies, Rockville, Md.) supplemented with 10% heat-inactivated endotoxin-free FCS (Hyclone, Logan, Utah), 10 μg/ml gentamicin, and 1 mM glutamine. Cells were treated with designated concentrations of the exemplary peptides 15K or 15D, and after 1 hr cells were infected with HIV-1IIIB (T cell tropic) or HIV-1JRFL (monocyte tropic) at an multiplicity of infection (MOI) of 0.1. After 2 hr, cells were washed, and cultured for additional 48-72 hr, followed by analysis of HIV replication as determined by quantification of accumulated p24 in the supernatant. The production of p24 was determined by conventional sandwich ELISA, using ELISA plates pre-coated with capture anti-p24 antibodies provided by the AIDS Vaccine Program (SAIC Frederick, NCI-FCRDC, Frederick, Md.). The captured p24 antigen was detected using rabbit anti-HIV-1 anti-p24 antibody, and a secondary goat anti-rabbit IgG (peroxidase-labeled) antibody. The captured p24 protein was detected using a 3,3′,5,5′-tetramethylbenzidine and hydrogen peroxide detection system (KPL Laboratories, Gaithersburg, Md.). The reaction was read spectrophotometrically at 450 nm. No cytotoxicity was detectable following treatment of PBMC with the peptides even at a concentration of 100 μg/ml.\nIn view of the foregoing binding inhibition studies, and considering the homology between the 15K and 15D peptides and the CXCR4 ligand SDF-1α, it was further undertaken to determine the capacity of the synthetic peptides to inhibit CXCR4 co-receptor function. In particular, experiments were carried out to assess the ability of 15K or 15D to alter the infection of PBMCs with the T cell-tropic […] strain. […] Significant inhibition of HIV-1 infection was detected with concentrations of peptides as low as 10 ng/ml."}},
  "data": [
    {"substance": "I R K A H C N I S R A D W N D [Peptide 15D]", "values": [
      {"measurement": "inhibition of MIP-1β binding to CCR5", "setting": "CCR5", "result": "competitively inhibited chemokine binding"},
      {"measurement": "concentration at which significant inhibition of HIV-1 infection was detected (as low as)", "setting": "HIV-1IIIB", "result": 10, "unit": "ng/mL"},
      {"measurement": "inhibition of T cell-tropic HIV-1 infection of PBMCs (p24)", "setting": "HIV-1IIIB", "result": "significantly reduced HIV-1 infection"},
      {"measurement": "anti-HIV-1 activity of 15D in comparison with 15K", "setting": "HIV-1IIIB; some experiments, data not shown, virus strain not stated", "result": "higher anti-HIV-1 activity"}
    ]},
    {"substance": "IRKAHCNISRAKWND [Peptide 15K]", "values": [
      {"measurement": "inhibition of MIP-1β binding to CCR5", "setting": "CCR5", "result": "competitively inhibited chemokine binding"},
      {"measurement": "concentration at which significant inhibition of HIV-1 infection was detected (as low as)", "setting": "HIV-1IIIB", "result": 10, "unit": "ng/mL"},
      {"measurement": "inhibition of T cell-tropic HIV-1 infection of PBMCs (p24)", "setting": "HIV-1IIIB", "result": "significantly reduced HIV-1 infection"}
    ]}
  ]
}
